Legend:
[1] = system: bovine microtubule protein (tubulin plus microtubule associated proteins); assay: In vitro ED50 MT polymerization study (DAPI fluorescence tubulin assay); type: biochemical; conditions: for ED50 Compound/ED50 Paclitaxel: ratio of tubulin polymerization ED50 values; for EC50: tubulin polymerization, 37° C. 30 minutes, percent of maximum assembly at 25 μM paclitaxel
Protocol: In this tubulin binding assay, microtubule protein (MTP) is used as a substrate. The assay contains bovine tubulin plus microtubule associated proteins (MAP). MTP is polymerized into microtubules in the presence of DAPI (4′,6′-diamidino-2-phenylindole), a fluorescent compound. DAPI binds to tubulin; when microtubules are formed and there is an enhancement of fluorescence. The microtubule formation is measured as a function of time, using a fluorescence plate reader. […] The method used is based on the procedure published by Donna M. Barron, et al, “Fluorescence-based high-throughput assay for antimicrotuble drugs” Analytical Biochemistry, 315: 49-56, 2003, which is incorporated by reference in its entirety. The excitation wavelength, in that assay, was set at 370 nm and the emission wavelength was set at 450 nm for the DAPI experiments.
A Bio-Tek FL 600 microplate Fluorescence Reader was used to measure the relative level of fluorescence in the DAPI assay.
Assays were conducted in 96-well plates. […] The final DMSO concentration was 4%. The plates were incubated at 37° C. for 30 minutes and read in a fluorescence plate reader using an excitation wavelength of 360 nm and an emission wavelength of 460 nm. Fluorescence values were corrected for the sample without compound. […] Experiments were done twice in triplicate. Results were subsequently combined and fit to a non-linear regression program.

[2] = system: human U251 (glioblastoma) CNS tumor cells
Text: Tumor Model: Each animal was implanted with one million U251 human CNS tumor cells from an in vitro cell line by ic injection with a 25 gauge needle. The day of tumor implantation (May 24, 2006) was designated as day 0. A sufficient number of mice were implanted so that animals with body weights in a range as narrow as possible were selected for the trial on the day of treatment initiation (day 1 after tumor implantation). Animals were randomly assigned to the treatment groups and individually identified by earmark codes.
A portion of this solution was then diluted with the complete vehicle to achieve the lower dosing concentration of 1.2 mg/mL. […] Temozolomide (Temodar, Schering Corporation) was prepared on each day of injection in Klucel+tween 80 at a concentration of 4 mg/mL. Temozolomide was administered within 5 minutes of formulation on the basis of exact body weight using a volume of 0.2 mL/10 g of body weight.
Data Collection: Animal health surveillance was conducted and mortality data were collected daily. The animals were weighed twice weekly starting with the first day of treatment.
Study Duration: The study was terminated 100 days after tumor implantation. Any animal found moribund or whose body weight dropped below 14 g was euthanized prior to study termination.
Parameters Evaluated: Number of 100-day survivors, median day of death, and the increase in lifespan based on median day of death and expressed as a percentage (% ILS), median survival time and the % ILS based on median survival time.
Administration of the Ringer's solution was initiated when animal body weights dropped by greater than 10% and continued until the animal recovered, died, or was euthanized.

[3] = temozolomide 80 mg/kg/dose po q4d×3

| Compound | ED50 Compound/ED50 Paclitaxel [1] | EC50 [1] | ILS ([2]; Group 4: TMZ 80 mg/kg, po. QD1, 5, 9) | loss in mean body weight [2, 3] | treatment-related deaths (in words) [2, 3] |
| --- | --- | --- | --- | --- | --- |
| C/C(=C\c1csc(C)n1)[C@@H]1C[C@@H]2O[C@]2(C)CCC[C@H](C)[C@H](O)[C@@H](C)C(=O)C(C)(C)[C@@H](O)CC(=O)O1 [Epothilone B] | 1.11 | 3.31 ± 0.51 µM |  |  |  |
| Cn1nnc2c(C(N)=O)ncn2c1=O [Temozolomide, reference compound] |  |  | 380% | 8% | without treatment-related deaths |
| CC(=O)O[C@@]12CO[C@@H]1C[C@H](O)[C@@]1(C)C(=O)[C@H](O)C3=C(C)[C@@H](OC(=O)[C@H](O)[C@@H](NC(=O)OC(C)(C)C)c4ccccc4)C[C@@](O)([C@@H](OC(=O)c4ccccc4)[C@H]21)C3(C)C [Docetaxel, docetaxel] | 1.07 | 3.18 ± 0.45 µM |  |  |  |
